Results on six compounds are retold here after patent US20260356840A1, “[1,2,4]TRIAZOLO[1,5-A]PYRIMIDINONE WRN INHIBITORS” (Nimbus Wadjet, Inc., priority 2023, published 2026).

Each structure is given as a SMILES string.

In this experiment the target is T1, human Werner helicase (Uniprot Q14191, amino acids 517-1235 with L1074F point mutation), WRN-BV08 (Homo sapiens, UniProt Q14191, L1074F).
T1 construct: Uniprot Q14191, amino acids 517-1235 with L1074F point mutation; TEV cleavable 8xHis tag (C, cleaved yes); made in house; host or cells: Sf9 insect cells (baculovirus, pFastBac)
T1 sequence (Q14191 517-1235 L1074F): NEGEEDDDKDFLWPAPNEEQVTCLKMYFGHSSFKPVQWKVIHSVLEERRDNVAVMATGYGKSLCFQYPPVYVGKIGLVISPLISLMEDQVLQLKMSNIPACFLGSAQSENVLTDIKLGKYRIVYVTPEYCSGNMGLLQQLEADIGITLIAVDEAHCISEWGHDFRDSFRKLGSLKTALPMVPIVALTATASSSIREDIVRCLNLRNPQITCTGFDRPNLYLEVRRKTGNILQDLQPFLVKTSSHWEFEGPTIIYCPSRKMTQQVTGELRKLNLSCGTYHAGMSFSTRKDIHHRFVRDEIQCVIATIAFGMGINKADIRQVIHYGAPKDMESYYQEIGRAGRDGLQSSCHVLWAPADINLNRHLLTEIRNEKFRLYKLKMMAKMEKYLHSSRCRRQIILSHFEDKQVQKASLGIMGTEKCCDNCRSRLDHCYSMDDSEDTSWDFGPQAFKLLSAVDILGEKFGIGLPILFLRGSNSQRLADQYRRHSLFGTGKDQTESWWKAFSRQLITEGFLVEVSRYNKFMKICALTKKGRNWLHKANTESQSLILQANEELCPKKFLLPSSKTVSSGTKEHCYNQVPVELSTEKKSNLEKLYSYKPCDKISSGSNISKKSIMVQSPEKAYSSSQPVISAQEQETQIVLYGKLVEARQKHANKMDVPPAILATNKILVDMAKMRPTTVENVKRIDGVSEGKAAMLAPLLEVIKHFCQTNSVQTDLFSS
Kind of experiment: WRN (BV08) ADP-Glo Assay. Format: biochemical. For orientation: ADP-Glo first removes unused ATP, then detects ADP through luciferase.
Compound `CCc1c(N2CCN(C(=O)c3ncc4c(c3O)OCC4)CC2)c(=O)n2nc(C3=CCOCC3)nc2n1CC(=O)Nc1ccc(C(F)(F)F)cc1Cl` [Compound I-83, N-[2-chloro-4-(trifluoromethyl)phenyl]-2-[2-(3,6-dihydro-2H-pyran-4-yl)-5-ethyl-6-(4-{7-hydroxy-2H,3H-furo[3,2-c]pyridine-6-carbonyl}piperazin-1-yl)-7-oxo-4H,7H-[1,2,4]triazolo[1,5-a]pyrimidin-4-yl]acetamide] registered a 50% inhibitory concentration (IC50) of 5 to 50 nM.
In turn, `CCc1c(N2CCN(C(=O)c3ncc4c(c3O)CCO4)CC2)c(=O)n2nc(C3=CCOCC3)nc2n1CC(=O)Nc1ccc(C(F)(F)F)cc1Cl` [Compound I-84, N-[2-chloro-4-(trifluoromethyl)phenyl]-2-[2-(3,6-dihydro-2H-pyran-4-yl)-5-ethyl-6-(4-{4-hydroxy-2H,3H-furo[2,3-c]pyridine-5-carbonyl}piperazin-1-yl)-7-oxo-4H,7H-[1,2,4]triazolo[1,5-a]pyrimidin-4-yl]acetamide] showed a 50% inhibitory concentration (IC50) below 5 nM.
The same measure for `CCc1c(N2CCN(C(=O)c3ncc4c(c3O)CCO4)CC2)c(=O)n2nc(-c3ccnc(OC)c3)nc2n1CC(=O)Nc1ccc(C(F)(F)F)cc1Cl` [Compound I-85, N-[2-chloro-4-(trifluoromethyl)phenyl]-2-[5-ethyl-6-(4-{4-hydroxy-2H,3H-furo[2,3-c]pyridine-5-carbonyl}piperazin-1-yl)-2-(2-methoxypyridin-4-yl)-7-oxo-4H,7H-[1,2,4]triazolo[1,5-a]pyrimidin-4-yl]acetamide]: below 5 nM.
The same measure for `CCc1c(N2CCN(C(=O)c3ncc4c(c3O)OCC4)CC2)c(=O)n2nc(-c3ccnc(OC)c3)nc2n1CC(=O)Nc1ccc(C(F)(F)F)cc1Cl` [Compound I-86, N-[2-chloro-4-(trifluoromethyl)phenyl]-2-[5-ethyl-6-(4-{7-hydroxy-2H,3H-furo[3,2-c]pyridine-6-carbonyl}piperazin-1-yl)-2-(2-methoxypyridin-4-yl)-7-oxo-4H,7H-[1,2,4]triazolo[1,5-a]pyrimidin-4-yl]acetamide]: below 5 nM; for `CCc1c(N2CCN(C(C)=O)CC2)c(=O)n2nc(-c3cnc(C(C)(C)O)s3)nc2n1CC(=O)Nc1ccc(C(F)(F)F)cc1Cl` [Compound I-87, 2-[6-(4-acetylpiperazin-1-yl)-5-ethyl-2-[2-(2-hydroxypropan-2-yl)-1,3-thiazol-5-yl]-7-oxo-4H,7H-[1,2,4]triazolo[1,5-a]pyrimidin-4-yl]-N-[2-chloro-4-(trifluoromethyl)phenyl]acetamide]: 5 to 50 nM.
The same measure for `CCc1c(N2CCN(C(=O)c3nocc3O)CC2)c(=O)n2nc(-c3ccnc(OC)c3)nc2n1CC(=O)Nc1ccc(C(F)(F)F)cc1Cl` [Compound I-88, N-[2-chloro-4-(trifluoromethyl)phenyl]-2-{5-ethyl-6-[4-(4-hydroxy-1,2-oxazole-3-carbonyl)piperazin-1-yl]-2-(2-methoxypyridin-4-yl)-7-oxo-4H,7H-[1,2,4]triazolo[1,5-a]pyrimidin-4-yl}acetamide]: 5 to 50 nM.

A word on the IC50: it is the point on the concentration scale where inhibition reaches its midpoint. The low end stands for inhibition by little substance, the high end for a need for much substance.
